In paper PMC11206507, “Unraveling the Impact of Six Pentacyclic Triterpenes Regulating Metabolic Pathways on Lung Carcinoma Cells” (Pharmaceuticals, 2024):

Key:
Format in all cases: cell-based, human
A549 cells [1] = test: Externalization of phosphatidylserine, Annexin V confocal microscopy; conditions: A549, IC25, 24 h
Procedure: Early apoptotic activity was evaluated by the externalization of PS using the Alexa Fluor® 488 Annexin V Apoptosis Reagent (Molecular Probes™) and NucBlue ReadyProbes Reagent™ (Thermo Fisher Scientific). For this assay, A549 cells were seeded in 8-well cover slip plates with a density of 1 × 10^5 cells/mL for 24 h in supplemented DMEM. Then, the A549 cells were incubated with the triterpenes (IC25) and controls for 24 h. Afterward, the cells were washed with 1× PBS and incubated with NucBlue (DAPI analog) and Annexin V for 15 min in the dark. The cells were fixed with 3.7% formaldehyde solution for 15 min, washed three times with 1× PBS, and covered with glycerol before visualization. The plates were observed by confocal microscopy using a Nikon Eclipse Ti microscope (Nikon Instruments Inc., El Segundo, CA, USA), utilizing a 20× oil objective with filter sets compatible with DAPI (Ex/Em = 405/460 nm) and Annexin V Alexa Fluor (Ex/Em = 488/525 nm). The fluorescence intensity was analyzed using the NIS-Elements Viewer program (version 5.21 64-bit) (Nikon Instruments Inc.). Each sample was analyzed in duplicate in two independent experiments. The fluorescence intensity was adjusted using untreated cells for each fluorescence channel (green and blue). Subsequently, this calibrated intensity was applied for the analysis of all treated cells.

A549 cells [2] = test: Mitochondrial ROS production assay (DHE, flow cytometry); conditions: A549, IC25, 24 h; for Amount of mROS, on average of the three named triterpenes, compared to the untreated cells: group average
Procedure: (§1) We used flow cytometry to analyze several cellular mechanistic pathways in A549 cells after incubation with the triterpenes. In general, the cells were seeded in a 6-well plate at a density of 1 × 10^6 cells/mL and incubated for 24 h in supplemented DMEM. After 24 h, the A549 cells were treated with the triterpenes, following each manufacturer’s protocol. All of the following experiments were performed in a Muse® Cell Analyzer (EMD Millipore Corporation, Temecula, CA). The instrument was calibrated before each assay using the Muse® System Check Kit (Luminex MCH100101, Luminex Corporation). Each assay was run at least in two independent experiments. For each experiment, all samples were analyzed in triplicate in the instrument and the capillary line was washed after each sample run to avoid artifacts. In addition, to address the issue of cell doublets, we used the Muse® Cell Dispersal Reagent (Luminex Corporation) in all experiments. The concentration of the triterpenes in each assay was selected depending on the cellular concentration necessary to generate the gain signal in the instrument. This means that we attempted to select concentrations avoiding excessive cytotoxicity to accurately determine the respective signal from each assay.
The production of reactive oxygen species (ROS) by mitochondria was determined using the Oxidative Stress Kit (Luminex MCH100111, Luminex Corporation). After the A549 cells were treated with the triterpenes (IC25) for 24 h, the cells were scraped and centrifuged. For ROS, the cell pellet was incubated with dihydroethidium (DHE) dye for 1 h at 37 °C.

PDL1 gene = test: RT-qPCR gene expression of PDL1; conditions: for PDL1 gene expression (in words): A549, IC25 (CisPt 25 μM), 24 h
Procedure: A549 cells were seeded into 6-well plates at a density of 1 × 10^6 cells/mL in supplemented DMEM. The cells were incubated with the triterpenes (IC25) for 24 h. Total RNA was extracted from the cells using the TRIzol reagent (Invitrogen Corporation, Carlsbad, CA, USA) according to the manufacturer’s instructions. The purity and concentration of RNA were assessed using a NanoDrop spectrophotometer (Thermo Fisher Scientific). cDNA was synthesized using the High-Capacity cDNA Reverse Transcription Kit (Applied Biosystems) according to the manufacturer’s instructions.
RT-qPCR was performed on a StepOnePlus® Real-Time PCR System (Thermo Fisher Scientific) using TaqMan Gene Expression Assays (Applied Biosystems) for PDL1 (CD274; Assay ID: Hs01125297_m1), ribonucleotide reductase (RR) M1 (Assay ID: Hs01040697_m1), and STAT3 (Assay ID: Hs01047586_g1). Each reaction consisted of 10 ng of cDNA, TaqMan Gene Expression Master Mix (Applied Biosystems), and TaqMan probes. The PCR cycling conditions were as follows: 95 °C for 10 min, followed by 40 cycles of 95 °C for 15 s and 60 °C for 60 s. The relative gene expression levels were calculated using the ΔΔCt method. GAPDH (Assay ID: Hs02758991_g1) was used as the endogenous control for normalization.
All RT-qPCR experiments were performed at least in triplicate. All data were expressed by plotting values with an average of four measurements for each treatment condition as the mean ± SD and analyzed with the software GraphPad Prism 9. Statistical analysis was performed using one-way analysis of variance (ANOVA) to compare the mean value of each treated type of cells versus the control (untreated cells). The statistical significance defined by the software for p values was **** < 0.0001, *** from 0.001 to 0.0001, ** from 0.001 to 0.01, * from 0.01 to 0.05, and non-significant (ns) ≥ 0.05.

LC3-II = test: Autophagy induction assay (LC3 antibody, flow cytometry); conditions: for Autophagic response (in words): A549, IC25, 24 h, vs controls (untreated ratio 0.8, starving ratio 1); for Autophagy inhibition: summary, NSCLC A549 cells
Procedure: as §1
The Muse® Autophagy LC3 Antibody-Based Kit (Luminex MCH200109, Luminex Corporation) was used to determine autophagy activation by monitoring lipidated LC3-II. After the A549 cells were treated with the triterpenes (IC25) for 24 h, autophagy reagent A was added for 4 h to prevent the lysosomal degradation of LC3-II. Then, the cells were detached and centrifuged. The pellet was suspended and incubated for 30 min in the autophagy reagent B containing anti-LC3-II mouse monoclonal antibody. Finally, the cell pellet was washed and suspended in fresh assay buffer for measurement. The autophagy response was calculated using the following formula:
Autophagy ratio = mean autophagy value of treated or untreated cells/mean autophagy value of starving cells.
The starving cells were labeled ‘No supp’ as non-supplemented cells. These served as the positive signal for autophagy and were designated a ratio of 1 since they were compared to themselves. A ratio ≥1 indicates the activation of the autophagic response.

Row | SMILES | Early apoptosis, externalization of PS (in words, qualitative) (A549 cells [1]) | mROS production (in words) (A549 cells [2]; vs negative control) | Amount of mROS, on average of the three named triterpenes, compared to the untreated cells (A549 cells [2]) [%] | PDL1 gene expression (in words) (PDL1 gene) | PDL1 downregulation (PDL1 gene; summary, NSCLC A549 cells) | Autophagic response (in words) (LC3-II) | Autophagy inhibition (LC3-II)
1 | C=C(C)[C@@H]1CC[C@]2(C(=O)O)CC[C@]3(C)[C@H](CC[C@@H]4[C@@]5(C)CC[C@H](O)C(C)(C)[C@@H]5CC[C@]43C)[C@@H]12 [BeA, betulinic acid] | lowest | largest level of mROS | 26.2 | superior in suppressing both genes |  |  | 
2 | C=C(C)[C@@H]1CC[C@]2(CO)CC[C@]3(C)[C@H](CC[C@@H]4[C@@]5(C)CC[C@H](O)C(C)(C)[C@@H]5CC[C@]43C)[C@@H]12 [Betu, betulin] | strongest activation |  |  | did not inhibit | - | induced an autophagic response similar to that of CisPt | -
3 | C=C(C)[C@@H]1CC[C@]2(C)CC[C@]3(C)[C@H](CC[C@@H]4[C@@]5(C)CC[C@H](O)C(C)(C)[C@@H]5CC[C@]43C)[C@@H]12 [Lupe, lupeol] | lowest |  | 26.2 |  |  | inhibit the LC3-II activity | 
4 | C[C@H]1[C@H](C)CC[C@]2(C(=O)O)CC[C@]3(C)C(=CC[C@@H]4[C@@]5(C)CC[C@H](O)C(C)(C)[C@@H]5CC[C@]43C)[C@H]12 [UrA, ursolic acid] | strongest activation |  |  |  |  | induced an autophagic response similar to that of CisPt | -
